Laboratory results taken from patent US20060035847A1, “Glucopyranosyloxyprazole derivatives and use thereof in medicines” (KISSEI PHARMACEUTICAL CO., LTD., priority 2000, published 2006).

What was measured:
[1] = system: ICR mice; experiment: Acute toxicity test; format: in vivo; conditions: male ICR mice, oral 2000 mg/kg, observation until 24 hours, 5 animals in each group
Experimental: After 4 week old male ICR mice (Japan SLC. Inc., 20-25 g, 5 animals in each group) were fasted for 4 hours, the suspension (200 mg/mL) prepared by adding of 0.5% sodium carboxymethylcellulose solution to the test compound was orally administered at the dose of 10 mL/kg (2000 mg/kg). Observation was performed until 24 hours after the administration.

[2] = system: SD rats; experiment: Assay for the facilitatory effect on urinary glucose excretion; format: in vivo; conditions: glucose load 2 g/kg, 24 hours urine
Experimental: Assay for the Facilitatory Effect on Urinary Glucose Excretion
(§1) As experimental animal, overnight fasted SD rats (Japan SLC. Inc., male, 7 weeks of age, 202-221 g) were used. A Test compound was suspended in 0.5% sodium carboxymethylcellulose solution at the concentration of 2 mg/mL. When homogenous suspension was not obtained in this condition, the test compound was dissolved in ethanol at the concentration of 200 mg/mL of active form and then 2 mg/mL suspension was obtained by adding this solution to 99 times volumes of 0.5% sodium carboxymethylcellulose solution. A part of this suspension was diluted with 0.5% sodium carboxymethylcellulose solution and then 0.6 and 0.2 mg/mL suspensions were prepared. After the body weights of rats were measured, the test suspension was orally administered at the dose of 5 mL/kg (1, 3 and 10 mg/kg). For control, just only 0.5% sodium carboxymethylcellulose solution was orally administered at the dose of 5 mL/kg. Immediately after this oral administration, 400 g/L glucose solution was orally administered at the dose of 5 mL/kg (2 g/kg). The oral administration was performed with gastric tube for rat and 2.5 mL syringe. The head count in one group was 3. Collection of urine was performed in metabolic cage after the glucose administration was finished. The sampling time for collection of urine was 24 hours after the glucose administration. After collection of urine was finished, the urine volume was recorded and the urinary glucose concentration was measured. The glucose concentration was measured with a kit for laboratory test: Glucose B-Test WAKO (Wako Pure Chemical Industries, Ltd.). The amount of urinary glucose excretion in 24 hours per 200 g of body weight was calculated from urine volume, urinary glucose concentration and body weight.
as §1, with “bodyweights” for “body weights”

[3] = biological target: T1, human SGLT2 (Homo sapiens, UniProt P31639, I433V); experiment: Assay for inhibitory effect on human SGLT2 activity (methyl-α-D-glucopyranoside uptake in COS-7 cells transiently expressing human SGLT2); format: cell-based
T1 construct: expressed in transfected cells; host or cells: COS-7 cells (RIKEN CELL BANK RCB0539), transient, electroporation
T1 sequence (P31639 1-672 I433V): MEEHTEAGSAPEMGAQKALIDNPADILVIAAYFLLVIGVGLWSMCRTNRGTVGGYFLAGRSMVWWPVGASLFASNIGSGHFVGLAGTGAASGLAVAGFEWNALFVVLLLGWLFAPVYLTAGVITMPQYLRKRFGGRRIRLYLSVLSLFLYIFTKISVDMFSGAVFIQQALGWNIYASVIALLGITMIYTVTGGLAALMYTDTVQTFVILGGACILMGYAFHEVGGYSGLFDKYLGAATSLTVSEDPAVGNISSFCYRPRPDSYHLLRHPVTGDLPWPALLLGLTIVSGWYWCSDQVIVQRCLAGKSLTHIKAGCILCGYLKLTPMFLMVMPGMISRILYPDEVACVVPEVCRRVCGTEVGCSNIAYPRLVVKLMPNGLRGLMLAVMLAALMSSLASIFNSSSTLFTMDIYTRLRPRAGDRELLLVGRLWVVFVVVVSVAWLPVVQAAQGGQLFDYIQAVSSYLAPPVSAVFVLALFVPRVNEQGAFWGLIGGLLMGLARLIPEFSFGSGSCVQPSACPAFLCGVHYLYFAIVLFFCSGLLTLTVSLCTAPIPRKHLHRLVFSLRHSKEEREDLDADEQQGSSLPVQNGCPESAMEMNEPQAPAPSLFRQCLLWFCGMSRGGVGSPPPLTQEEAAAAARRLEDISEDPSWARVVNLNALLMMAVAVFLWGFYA
Experimental: Assay for Inhibitory Effect on Human SGLT2 Activity
1) Construction of the Plasmid Vector Expressing Human SGLT2
Preparation of the cDNA library for PCR amplification was performed by reverse transcription of a total RNA deprived from human kidney (Ori gene) with oligo dT as the primer, using SUPERSCRIPT Preamplification System (Gibco-BRL: LIFE TECHNOLOGIES). The DNA fragment coding for human SGLT2 was amplified by the PCR reaction, in which the human kidney cDNA library described above was used as the template and the following oligo nucleotides 0702F and 0712R, presented as sequence number 1 and 2 respectively, were used as the primers. The amplified DNA fragment was ligated into pCR-Blunt (Invitrogen), a vector for cloning, according to standard method of the kit. The Escherichia coli HB101 was transformed according to usual method and then selection of the transformants was performed on the LB agar medium containing 50 μg/mL of kanamycin. After plasmid DNA was extracted and purified from the one of the transformants, amplifying of the DNA fragment coding for human SGLT2 was performed by the PCR reaction, in which the following oligo nucleotides 0714F and 0715R, presented as sequence number 3 and 4 respectively, were used as the primers. The amplified DNA fragment was digested with restriction enzymes, Xho I and Hind III, and then purified with Wizard Purification System (Promega). This purified DNA fragment was inserted at into the corresponding restriction sites of pcDNA3.1 (−) Myc/His—B (Invitrogen), a vector for expressing of fusion protein. The Escherichia coli HB101 was transformed according to usual method and then selection of the transformant was performed on the LB agar medium containing 100 μg/mL of ampicillin. After plasmid DNA was extracted and purified from this transformant, the base sequence of the DNA fragment inserted at the multi-cloning sites of the vector pcDNA3.1 (−) Myc/His—B was analyzed. […] Sequentially, a clone in which valine is substituted for isoleucine-433 was obtained. This plasmid vector expressing human SGLT2 in which the peptide presented as sequence number 5 is fused to the carboxyl terminal alanine residue was designated KL29.
2) Preparation of the Cells Expressing Transiently Human SGLT2
KL29, the plasmid coding human SGLT2, was transfected into COS-7 cells (RIKEN CELL BANK RCB0539) by electroporation. Electroporation was performed with GENE PULSER II (Bio-Rad Laboratories) under the condition: 0.290 kV, 975 μF, 2×10^6 cells of COS-7 cell and 20 μg of KL29 in 500 μL of OPTI-MEM I medium (Gibco-BRL: LIFE TECHNOLOGIES) in the 0.4 cm type cuvette. After the gene transfer, the cells were harvested by centrifugation and resuspended with OPTI-MEM I medium (1 mL/cuvette). To each well in 96-wells plate, 125 μL of this cell suspension was added. After overnight culture at 37° C. under 5% CO2, 125 μL of DMEM medium which is containing 10% of fetal bovine serum (Sanko Jyunyaku), […] sodium penicillin G (Gibco-BRL: LIFE TECHNOLOGIES), 100 μg/mL streptomycin sulfate (Gibco-BRL: LIFE TECHNOLOGIES) was added to each well. These cells were cultured until the next day and then they were used for the measurement of the inhibitory activity against the uptake of methyl-α-D-glucopyranoside.
3) Measurement of the Inhibitory Activity Against the Uptake of methyl-α-D-glucopyranoside
After a test compounds was dissolved in dimethyl sulfoxide and diluted with the uptake buffer (a pH 7.4 buffer containing 140 mM sodium chloride, 2 mM potassium chloride, 1 mM calcium chloride, 1 mM magnesium chloride, 5 mM methyl-α-D-glucopyranoside, 10 mM 2-[4-(2-hydroxyethyl)-1-piperazinyl]ethane sulfonic acid and 5 mM tris(hydroxymethyl)aminomethane), each diluent was used as test sample for measurement of the inhibitory activity. […]

[4] = system: normal mice; conditions: cited from earlier work

SMILES	Death number [1]	Amount of Urinary Glucose Excretion ([2]; oral dose 1 mg/kg)	Amount of Urinary Glucose Excretion ([2]; oral dose 3 mg/kg)	Amount of Urinary Glucose Excretion ([2]; oral dose 10 mg/kg)	inhibitory activity in human SGLT2 (in words) [3]	IC50 ([3]; inhibition of methyl-α-D-glucopyranoside uptake, COS-7 cells expressing human SGLT2, 37° C., 2 hours) [µM]	amount of excreted glucose [4]
COC(=O)OC[C@H]1O[C@@H](Oc2n[nH]c(C)c2Cc2ccc(OC(C)C)cc2)[C@H](O)[C@@H](O)[C@@H]1O [Example 48, 4-[(4-Isopropoxyphenyl)methyl]-3-(6-O-methoxycarbonyl-β-D-glucopyranosyloxy)-5-methyl-1H-pyrazole]	0/5	–	–	–	–	–	–
CCOC(=O)OC[C@H]1O[C@@H](Oc2nn(C(C)C)c(C)c2Cc2ccc(OC(C)C)cc2)[C@H](O)[C@@H](O)[C@@H]1O [Example 1, 3-(6-O-Ethoxycarbonyl-β-D-glucopyranosyloxy)-4-[(4-isopropoxyphenyl)methyl]-1-isopropyl-5-methylpyrazole]	–	1.6 mg/24 hours · 200 g body weight	28.3 mg/24 hours · 200 g body weight	127.5 mg/24 hours · 200 g body weight	–	–	–
COC(=O)OC[C@H]1O[C@@H](Oc2nn(C(C)C)c(C)c2Cc2ccc(OC(C)C)cc2)[C@H](O)[C@@H](O)[C@@H]1O [Example 15, 4-[(4-Isopropoxyphenyl)methyl]-1-isopropyl-3-(6-O-methoxycarbonyl-β-D-glucopyranosyloxy)-5-methylpyrazole]	–	1.7 mg/24 hours · 200 g body weight	36.8 mg/24 hours · 200 g body weight	167.3 mg/24 hours · 200 g body weight	–	–	–
CSc1ccc(Cc2c(C(F)(F)F)[nH][nH]c2=O)cc1 [WAY-123783, reference compound]	–	–	–	–	extremely weak inhibitory activity	> 100	increased
